Results from patent US9320760B2, “Compositions and methods of use of compounds to increase cancer patient survival time” (BioNumerik Pharmaceuticals, Inc., priority 2008, dated 2016).
Like-named read-outs stand apart in the source and are kept apart here.

Legend:
[1] = tested on: mammalian thioredoxin reductase (TXR); conditions: cited from earlier work
[2] = target: T1, Thioredoxin Reductase + Thioredoxin (Bos taurus, UniProt O97680); assay: NADPH oxidation at 340 nm, coupled thioredoxin (TX)/thioredoxin reductase (TXR)/NADPH system; format: biochemical, bovine; conditions: Disulfide 0.5 mM; minimum of triplicate assays
T1 sequence (O97680 1-105): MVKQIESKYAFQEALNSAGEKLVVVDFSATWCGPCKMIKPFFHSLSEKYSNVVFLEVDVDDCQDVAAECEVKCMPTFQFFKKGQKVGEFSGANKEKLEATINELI
Experimental: (§1) Biochemistry 21:6628-6633 (1982).
(§2) Data was then collected and plotted in Microsoft Excel. Error calculations, and graphical representations were performed in Microsoft Excel and Kaleidograph (ver. 3.5). Nonlinear data was graphically rendered using Kaleidograph. ANOVA and other statistical analyses were performed using SAS (ver. 8.2). Unless otherwise noted, significance level was set at 0.05, and error bars represent actual experimental standard deviation.
(§3) It should be noted that for the purposes of FIG. 17 only, thioredoxin is labeled TXR and thioredoxin reductase is labeled TRR.
Table 4, below, illustrates that various Formula (I) compounds (i.e., disulfide-containing compounds) of the present invention can serve as alternate substrate inhibitors for the coupled thioredoxin (TX)/thioredoxin reductase (TXR)/NADPH system as measured by the oxidation of NADPH. In Table 4, the Formula (I) compounds were utilized at a concentration of 0.5 mM.

[3] = target: T2, Thioredoxin Reductase (Bos taurus, UniProt O62768); assay: NADPH oxidation at 340 nm, thioredoxin reductase only; format: biochemical, bovine; conditions: Disulfide 0.5 mM; minimum of triplicate assays
T2 sequence (O62768 1-499): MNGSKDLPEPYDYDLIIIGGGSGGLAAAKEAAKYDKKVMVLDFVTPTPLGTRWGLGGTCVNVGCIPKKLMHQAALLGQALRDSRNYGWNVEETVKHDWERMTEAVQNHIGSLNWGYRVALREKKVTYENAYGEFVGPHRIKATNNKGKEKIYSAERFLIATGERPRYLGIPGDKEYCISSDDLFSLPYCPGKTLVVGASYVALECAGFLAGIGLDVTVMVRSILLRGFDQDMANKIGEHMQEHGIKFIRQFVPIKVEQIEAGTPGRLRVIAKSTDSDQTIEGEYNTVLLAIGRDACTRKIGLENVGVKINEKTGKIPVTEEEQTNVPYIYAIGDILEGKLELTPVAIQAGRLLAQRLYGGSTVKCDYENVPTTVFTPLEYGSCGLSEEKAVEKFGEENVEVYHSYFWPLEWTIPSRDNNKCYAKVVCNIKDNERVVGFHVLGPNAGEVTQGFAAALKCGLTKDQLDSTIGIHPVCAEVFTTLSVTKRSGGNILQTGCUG
Experimental: as §1, §2, §3

[4] = target: T3, glutathione reductase (GR) (Homo sapiens, UniProt P00390); assay: NADPH oxidation, glutathione reductase (GR) alone; format: biochemical; conditions: for NADPH Oxidation, GR: Disulfide 0.5 mM, n = 6
T3 sequence (P00390 44-522): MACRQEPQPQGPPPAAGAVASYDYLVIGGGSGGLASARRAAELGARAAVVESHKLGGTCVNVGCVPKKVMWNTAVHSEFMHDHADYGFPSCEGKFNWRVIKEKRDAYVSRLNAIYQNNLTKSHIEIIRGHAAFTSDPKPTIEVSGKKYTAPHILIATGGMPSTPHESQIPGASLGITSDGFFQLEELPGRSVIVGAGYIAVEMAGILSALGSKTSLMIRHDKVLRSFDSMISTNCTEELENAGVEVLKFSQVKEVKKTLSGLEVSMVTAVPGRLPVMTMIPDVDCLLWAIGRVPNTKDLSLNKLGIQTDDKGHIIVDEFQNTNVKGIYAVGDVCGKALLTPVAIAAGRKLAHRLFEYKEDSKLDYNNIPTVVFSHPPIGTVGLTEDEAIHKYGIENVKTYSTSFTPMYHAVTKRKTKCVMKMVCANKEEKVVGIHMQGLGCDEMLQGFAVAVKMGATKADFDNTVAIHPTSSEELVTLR
Experimental: (§4) The Formula (I) compound was utilized at a concentration of 0.5 mM.

[5] = target: T4, GR + GRX + GSH (coupled glutaredoxin/glutathione/glutathione reductase system) (Homo sapiens, UniProt P35754); assay: NADPH oxidation, coupled GRX/GSH/GR system; format: biochemical; conditions: Disulfide 0.5 mM; n = 6
T4 sequence (P35754 1-106): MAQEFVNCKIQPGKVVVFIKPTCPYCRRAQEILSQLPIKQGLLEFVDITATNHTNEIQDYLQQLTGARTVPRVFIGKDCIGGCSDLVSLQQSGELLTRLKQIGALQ
Experimental: as §4

[6] = target: T5, GR + GSH (Homo sapiens, UniProt P00390); assay: NADPH oxidation, GR + GSH; format: biochemical; conditions: Disulfide 0.5 mM; n = 6
T5 sequence (P00390 44-522): T3 sequence (P00390 44-522)
Experimental: as §4

[7] = tested on: cellular ribonucleotide reductase in human cancer cells; conditions: literature; cited from earlier work
[8] = target: T3, glutathione reductase (GR); conditions: cited from earlier work
[9] = tested on: whole cells; assay: whole cell mediated disulfide reduction (α-lipoic acid, hydroxyethyldisulfide); format: cell-based; conditions: mesna in combination with cisplatin
[10] = tested on: brain cancer cells; assay: cytotoxicity study in combination with oxaliplatin, brain cancer cells; format: cell-based, human; conditions: oxaliplatin and mesna, observable but not statistically significant
[11] = tested on: non-small cell lung carcinoma (NSCLC) cell lines; assay: cytotoxicity study in combination with chemotherapeutic agents, NSCLC cell lines; format: cell-based, human
[12] = tested on: ovarian cancer cell lines; assay: cytotoxicity study in combination with oxaliplatin, ovarian cancer cell lines; format: cell-based, human; conditions: mesna 100 μM in combination with oxaliplatin vs oxaliplatin alone controls
[13] = literature studies, result in words

CC1=C(/C=C/C(C)=C/C=C/C(C)=C\C(=O)O)C(C)(C)CCC1 [13-cis-retinoic acid]
inhibition of TXR [1, 13]: irreversible inhibition

NC(CSSCCS(=O)(=O)O)C(=O)O (stereo not shown) [BNP7766]
NADPH Oxidation, Thioredoxin Reductase + Thioredoxin [2]: 14.4 ± 0.2 nmol/min/mL
NADPH Oxidation, Thioredoxin Reductase only [3]: 0.2 ± 0.03 nmol/min/mL
NADPH Oxidation, GR [4]: 0.0 ± 0.01 nmol/min/mL
NADPH Oxidation, GR + GRX + GSH [5]: 28.3 ± 2.0 nmol/min/mL
NADPH Oxidation, GR + GSH [6]: 4.1 ± 1.3 nmol/min/mL

NC(CCSSCCS(=O)(=O)O)C(=O)O (stereo not shown) [BNP7768]
NADPH Oxidation, Thioredoxin Reductase + Thioredoxin [2]: 8.6 ± 0.06 nmol/min/mL
NADPH Oxidation, Thioredoxin Reductase only [3]: 0.0 ± 0.03 nmol/min/mL
NADPH Oxidation, GR [4]: 0.16 ± 0.96 nmol/min/mL
NADPH Oxidation, GR + GRX + GSH [5]: 10.7 ± 0.7 nmol/min/mL
NADPH Oxidation, GR + GSH [6]: 0.88 ± 0.2 nmol/min/mL

N[C@@H](CCC(=O)N[C@@H](CSSCCS(=O)(=O)O)C(=O)NCC(=O)O)C(=O)O [BNP7772]
NADPH Oxidation, Thioredoxin Reductase + Thioredoxin [2]: 14.1 ± 0.1 nmol/min/mL
NADPH Oxidation, Thioredoxin Reductase only [3]: 0.3 ± 0.02 nmol/min/mL
NADPH Oxidation, GR [4]: 8.0 ± 0.6 nmol/min/mL
substrate / alternative substrate inhibitor for glutathione reductase ([4]; result in words): functions as an alternative substrate inhibitor
NADPH Oxidation, GR + GRX + GSH [5]: 71.0 ± 7.9 nmol/min/mL
NADPH Oxidation, GR + GSH [6]: 11.3 ± 0.8 nmol/min/mL

NC(CCC(=O)NC(CSSCCS(=O)(=O)O)C(=O)O)C(=O)O (stereo not shown) [BNP7774]
NADPH Oxidation, Thioredoxin Reductase + Thioredoxin [2]: 9.6 ± 0.2 nmol/min/mL
NADPH Oxidation, Thioredoxin Reductase only [3]: 0.3 ± 0.02 nmol/min/mL
NADPH Oxidation, GR [4]: 0.04 ± 0.12 nmol/min/mL
NADPH Oxidation, GR + GRX + GSH [5]: 37.0 ± 2.1 nmol/min/mL
NADPH Oxidation, GR + GSH [6]: 2.4 ± 0.7 nmol/min/mL

N[C@@H](CSSCCS(=O)(=O)O)C(=O)NCC(=O)O [BNP7776]
NADPH Oxidation, Thioredoxin Reductase + Thioredoxin [2]: 15.8 ± 0.3 nmol/min/mL
NADPH Oxidation, Thioredoxin Reductase only [3]: 0.2 ± .04 nmol/min/mL
NADPH Oxidation, GR [4]: 0.0 ± 0.7 nmol/min/mL
NADPH Oxidation, GR + GRX + GSH [5]: 22.0 ± 0.5 nmol/min/mL
NADPH Oxidation, GR + GSH [6]: 4.1 ± 1.0 nmol/min/mL

CCOC(=O)NC1=C(N2CC2)C(=O)C(NC(=O)OCC)=C(N2CC2)C1=O [Diaziquone]
inhibition of the TR/TXR system resulting in inhibition of cellular ribonucleotide reductase activity [7]: concentration-dependent inhibition

CS(=O)(=O)OCCCCOS(C)(=O)=O [busulfan]
inhibition of GR [8, 13]: not GR
inhibition of TXR [1, 13]: irreversibly inhibited

N.N.O=C([O-])C1(C(=O)[O-])CCC1.[Pt+2] [carboplatin]
inhibition of GR [8, 13]: could not inhibit
inhibition of TXR [1, 13]: could not inhibit

O=NN(CCCl)C(=O)NCCCl [carmustine]
inhibition of GR [8, 13]: can inhibit
inhibition of TXR [1, 13]: can inhibit

O=C(O)CCCc1ccc(N(CCCl)CCCl)cc1 [chlorambucil]
inhibition of GR [8, 13]: not GR
inhibition of TXR [1, 13]: irreversibly inhibited

N.N.[Cl][Pt][Cl] [cisplatin, cis-diamminedichloroplatinum]
inhibition of GR [8, 13]: not GR
inhibition of TXR [1, 13]: irreversibly inhibited

O=P1(N(CCCl)CCCl)NCCCO1 (stereo not shown) [cyclophosphamide]
inhibition of GR [8, 13]: not GR
inhibition of TXR [1, 13]: irreversibly inhibited

COc1cccc2c1C(=O)c1c(O)c3c(c(O)c1C2=O)C[C@@](O)(C(C)=O)C[C@@H]3O[C@H]1C[C@H](N)[C@H](O)[C@H](C)O1 [daunorubicin]
inhibition of TXR [1]: not inhibitors

COc1cccc2c1C(=O)c1c(O)c3c(c(O)c1C2=O)C[C@@](O)(C(=O)CO)C[C@@H]3O[C@H]1C[C@H](N)[C@H](O)[C@H](C)O1 [doxorubicin]
inhibition of the TR/TXR system resulting in inhibition of cellular ribonucleotide reductase activity [7]: concentration-dependent inhibition
inhibition of TXR [1, 13]: not inhibitors

O=P1(NCCCl)OCCCN1CCCl (stereo not shown) [ifosfamide]
inhibition of TXR [1, 13]: inhibited

N[C@@H](Cc1ccc(N(CCCl)CCCl)cc1)C(=O)O [melphalan]
inhibition of GR [8, 13]: not GR
inhibition of TXR [1, 13]: irreversibly inhibited

O=S(=O)([O-])CCS.[Na+] [mesna, 2-mercapto ethane sulfonate sodium]
reduction of α-lipoic acid (TX/TXR substrate) or hydroxyethyldisulfide (GRX substrate) by whole cells [9]: enhanced
oxaliplatin cytotoxicity [10]: lesser increase
cytotoxic effect of oxaliplatin ([11]; mesna 100 μM in combination with oxaliplatin vs oxaliplatin alone controls): markedly enhanced
cytotoxic effect of paclitaxel ([11]; mesna 100 μM in combination with paclitaxel vs paclitaxel alone controls): enhanced
cytotoxic effect of oxaliplatin [12]: markedly enhanced

O=C(O)C(=O)O.[NH-][C@@H]1CCCC[C@H]1[NH-].[Pt+2] [oxaliplatin]
inhibition of GR [8]: not GR
inhibition of TXR [1]: irreversibly inhibited

N.N.[Cl][Pt+2][Cl] [transplatin]
inhibition of GR [8]: not GR
inhibition of TXR [1]: irreversibly inhibited
